Read-outs that look alike come from different tables or passages of the source.
Columns and labels:
OATP1A2 = target: T1, OATP1A2 (Homo sapiens, UniProt P46721); test: Drug uptake in X. laevis oocytes injected with SLCO1A2; format: in vitro ADME; settings: 1 µM (darunavir 3 µM), 18°C, 1hr, mean ± SD; for Drug uptake, OATP1A2: OATP1A2 cRNA injected oocytes; for Drug uptake, Water: water injected control oocytes (Table 1)
T1 sequence (P46721 1-670): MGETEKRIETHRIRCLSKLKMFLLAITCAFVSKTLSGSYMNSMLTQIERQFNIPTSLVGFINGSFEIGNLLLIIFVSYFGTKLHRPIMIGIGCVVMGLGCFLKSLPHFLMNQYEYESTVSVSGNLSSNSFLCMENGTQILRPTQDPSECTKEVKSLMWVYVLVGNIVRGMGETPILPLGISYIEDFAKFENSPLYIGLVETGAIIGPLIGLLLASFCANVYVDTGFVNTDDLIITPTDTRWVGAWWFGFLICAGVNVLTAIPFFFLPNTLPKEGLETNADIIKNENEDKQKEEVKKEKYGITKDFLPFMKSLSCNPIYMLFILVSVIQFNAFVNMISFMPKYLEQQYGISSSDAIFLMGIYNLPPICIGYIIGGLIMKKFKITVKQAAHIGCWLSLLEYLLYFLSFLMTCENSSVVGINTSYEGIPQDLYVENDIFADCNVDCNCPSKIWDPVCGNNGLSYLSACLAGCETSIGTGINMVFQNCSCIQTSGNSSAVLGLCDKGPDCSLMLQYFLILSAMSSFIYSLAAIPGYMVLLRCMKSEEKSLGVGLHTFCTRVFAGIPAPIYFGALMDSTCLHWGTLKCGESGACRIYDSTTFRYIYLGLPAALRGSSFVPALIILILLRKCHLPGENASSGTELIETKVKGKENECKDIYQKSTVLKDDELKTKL

OATP1B1 [1] = target: T2, OATP1B1 (Homo sapiens, UniProt Q9Y6L6); test: Drug uptake in X. laevis oocytes injected with SLCO1B1; format: in vitro ADME; settings: 1 µM (darunavir 3 µM), 18°C, 1hr, mean ± SD; for Drug uptake, OATP1B1: OATP1B1 cRNA injected oocytes; for Drug uptake, Water: water injected control oocytes (Table 2)
T2 sequence (Q9Y6L6 1-691): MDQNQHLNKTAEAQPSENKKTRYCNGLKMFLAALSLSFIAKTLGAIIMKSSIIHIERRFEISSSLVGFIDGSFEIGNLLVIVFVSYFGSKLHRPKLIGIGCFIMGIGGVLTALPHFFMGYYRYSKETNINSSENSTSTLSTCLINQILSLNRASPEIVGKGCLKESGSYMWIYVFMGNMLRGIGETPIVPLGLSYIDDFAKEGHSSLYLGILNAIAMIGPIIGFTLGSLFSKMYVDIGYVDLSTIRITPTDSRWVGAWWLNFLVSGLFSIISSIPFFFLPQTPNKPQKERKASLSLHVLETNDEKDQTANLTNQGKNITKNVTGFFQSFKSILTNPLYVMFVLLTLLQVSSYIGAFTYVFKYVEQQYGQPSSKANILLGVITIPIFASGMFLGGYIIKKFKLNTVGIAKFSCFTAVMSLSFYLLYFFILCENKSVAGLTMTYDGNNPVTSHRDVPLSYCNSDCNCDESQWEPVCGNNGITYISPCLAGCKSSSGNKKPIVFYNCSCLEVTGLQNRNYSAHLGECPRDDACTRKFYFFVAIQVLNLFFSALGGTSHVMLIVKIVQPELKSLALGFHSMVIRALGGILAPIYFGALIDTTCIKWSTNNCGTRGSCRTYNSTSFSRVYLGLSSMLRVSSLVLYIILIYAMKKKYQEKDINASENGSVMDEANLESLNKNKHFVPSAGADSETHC

OATP1B3 = target: T3, OATP1B3 (Homo sapiens, UniProt Q9NPD5); test: Drug uptake in X. laevis oocytes injected with SLCO1B3; format: in vitro ADME; settings: without human serum albumin, 1 µM (darunavir 3 µM, performed once), 18°C, 1hr, mean ± SD; for Drug uptake, OATP1B3: OATP1B3 cRNA injected oocytes; for Drug uptake, Water: water injected control oocytes (Table 3)
T3 sequence (Q9NPD5 1-702): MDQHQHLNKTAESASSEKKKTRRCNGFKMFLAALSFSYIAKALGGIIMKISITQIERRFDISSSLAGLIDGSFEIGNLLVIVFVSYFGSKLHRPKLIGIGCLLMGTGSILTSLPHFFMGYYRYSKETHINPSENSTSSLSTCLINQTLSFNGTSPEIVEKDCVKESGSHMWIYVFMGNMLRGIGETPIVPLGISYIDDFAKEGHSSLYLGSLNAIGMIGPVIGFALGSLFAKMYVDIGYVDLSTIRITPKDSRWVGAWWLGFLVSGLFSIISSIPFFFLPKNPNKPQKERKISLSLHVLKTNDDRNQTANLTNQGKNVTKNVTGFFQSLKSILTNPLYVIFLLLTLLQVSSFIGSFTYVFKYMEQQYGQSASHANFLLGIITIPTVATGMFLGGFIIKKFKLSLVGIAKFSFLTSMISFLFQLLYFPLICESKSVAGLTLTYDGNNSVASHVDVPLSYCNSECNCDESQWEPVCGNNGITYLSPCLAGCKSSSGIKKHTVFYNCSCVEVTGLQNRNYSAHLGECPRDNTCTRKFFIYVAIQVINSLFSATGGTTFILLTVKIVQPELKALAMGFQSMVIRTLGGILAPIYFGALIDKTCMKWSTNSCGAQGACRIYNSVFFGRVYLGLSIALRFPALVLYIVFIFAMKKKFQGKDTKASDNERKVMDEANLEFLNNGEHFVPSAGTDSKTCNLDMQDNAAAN

[2] = format: in vivo, human
OATP1B1 [3] = target: T2, OATP1B1; settings: HEK 293 cells stably transfected with SLCO1B1; cited from earlier work
[4] = independent variable Age (Years)
[5] = independent variable Coadministered protease inhibitor
[6] = independent variable Male Gender
[7] = independent variable SLCO1A2 38T>C
[8] = independent variable SLCO1A2 516A>C
[9] = independent variable SLCO1B1 388A>G
[10] = independent variable SLCO1B1 521T>C
[11] = independent variable SLCO1B3 334T>G
[12] = independent variable Weight (per 10kg)
[13] = patients on lopinavir/ritonavir 400mg/100mg b.d., samples included in the analysis

SMILES: Cc1cccc(C)c1OCC(=O)N[C@@H](Cc1ccccc1)[C@@H](O)C[C@H](Cc1ccccc1)NC(=O)[C@H](C(C)C)N1CCCNC1=O [Lopinavir, lopinavir]
- Drug uptake, OATP1A2 (OATP1A2; with 2% human serum albumin): 1.65 ± 0.59 pmol/oocyte
- Drug uptake, OATP1A2 (OATP1A2; without human serum albumin): 4.07 ± 0.67 pmol/oocyte
- Drug uptake, Water (OATP1A2; with 2% human serum albumin): 0.82 ± 0.24 pmol/oocyte
- Drug uptake, Water (OATP1A2; without human serum albumin): 2.53 ± 0.36 pmol/oocyte
- Drug uptake, OATP1B1 (OATP1B1 [1]; with 2% human serum albumin): 1.14 ± 0.41 pmol/oocyte
- Drug uptake, OATP1B1 (OATP1B1 [1]; without human serum albumin): 4.31 ± 0.72 pmol/oocyte
- Drug uptake, Water (OATP1B1 [1]; with 2% human serum albumin): 0.66 ± 0.22 pmol/oocyte
- Drug uptake, Water (OATP1B1 [1]; without human serum albumin): 2.14 ± 0.43 pmol/oocyte
- Drug uptake, OATP1B3 (OATP1B3): 2.30 ± 0.66 pmol/oocyte
- Drug uptake, Water (OATP1B3): 1.69 ± 0.78 pmol/oocyte
- lopinavir Cmin with a SNP located in intron 2 of the SLCO1B1 gene ([2]; in words): significantly lower
- median plasma lopinavir Cmin, patients homozygous for the C allele at position 521 of SLCO1B1 compared to T homozygotes or heterozygotes ([2]; in words): significantly higher
- Univariate effect size on lopinavir C2-6 [2, 4]: 6.8%
- Univariate effect size on lopinavir Cmin [2, 4]: 1.1%
- Univariate effect size on lopinavir C2-6 [2, 5]: −14.9%
- Univariate effect size on lopinavir Cmin [2, 5]: −15.5%
- Univariate effect size on lopinavir C2-6 [2, 6]: 4.2%
- Univariate effect size on lopinavir Cmin [2, 6]: −5.5%
- Univariate effect size on lopinavir C2-6 [2, 7]: 5.8%
- Univariate effect size on lopinavir Cmin [2, 7]: 4.7%
- Univariate effect size on lopinavir C2-6 [2, 8]: 5.4%
- Univariate effect size on lopinavir Cmin [2, 8]: −1.0%
- Univariate effect size on lopinavir C2-6 [2, 9]: −7.1%
- Univariate effect size on lopinavir Cmin [2, 9]: −7.3%
- Univariate effect size on lopinavir C2-6 [2, 10]: 12.8%
- Univariate effect size on lopinavir Cmin [2, 10]: 12.2%
- Multivariate effect size on lopinavir Cmin ([2]; independent variable SLCO1B1 Intron 2 (rs4149032)): 0.016 (−11) - %
- Univariate effect size on lopinavir C2-6 ([2]; independent variable SLCO1B1 Intron 2 (rs4149032), C2-6 = 2-6h post dose): −4.6%
- Univariate effect size on lopinavir Cmin ([2]; independent variable SLCO1B1 Intron 2 (rs4149032), Cmin = 10-14h post dose): −11.9%
- Univariate effect size on lopinavir C2-6 [2, 11]: −0.2%
- Univariate effect size on lopinavir Cmin [2, 11]: −1.8%
- Multivariate effect size on lopinavir Cmin [2, 12]: −17.2%
- Univariate effect size on lopinavir C2-6 [2, 12]: −13.7%
- Univariate effect size on lopinavir Cmin [2, 12]: −17.4%
- C2-6 higher for each variant allele of SLCO1B1 521T>C ([2]; multivariate model): 11.1%
- C2-6 higher in patients receiving an additional protease inhibitor ([2]; multivariate model): 14.4%
- Cmin higher in patients receiving an additional protease inhibitor ([2]; multivariate model): 15.4%
- Cmin lower for each variant allele of SLCO1B1 rs4149032 ([2]; multivariate model): 11%
- Cmin lower for every 10 Kg increase in body weight ([2]; multivariate model): 17.2%
- median lopinavir concentration (plasma) [2, 13]: 5072 ng/mL
- range of lopinavir concentration (plasma) [2, 13]: 114 to 24432 ng/mL

SMILES: CC(C)(C)NC(=O)[C@@H]1C[C@@H]2CCCC[C@@H]2CN1C[C@@H](O)[C@H](Cc1ccccc1)NC(=O)[C@H](CC(N)=O)NC(=O)c1ccc2ccccc2n1 [Saquinavir, saquinavir]
- Drug uptake, OATP1A2 (OATP1A2; with 2% human serum albumin): 0.45 ± 0.05 pmol/oocyte
- Drug uptake, OATP1A2 (OATP1A2; without human serum albumin): 2.16 ± 0.71 pmol/oocyte
- Drug uptake, Water (OATP1A2; with 2% human serum albumin): 0.27 ± 0.03 pmol/oocyte
- Drug uptake, Water (OATP1A2; without human serum albumin): 1.01 ± 0.21 pmol/oocyte
- Drug uptake, OATP1B1 (OATP1B1 [1]; with 2% human serum albumin): 0.64 ± 0.23 pmol/oocyte
- Drug uptake, OATP1B1 (OATP1B1 [1]; without human serum albumin): 1.78 ± 0.44 pmol/oocyte
- Drug uptake, Water (OATP1B1 [1]; with 2% human serum albumin): 0.21 ± 0.06 pmol/oocyte
- Drug uptake, Water (OATP1B1 [1]; without human serum albumin): 0.94 ± 0.26 pmol/oocyte
- Drug uptake, OATP1B3 (OATP1B3): 2.17 ± 0.61 pmol/oocyte
- Drug uptake, Water (OATP1B3): 1.62 ± 0.45 pmol/oocyte
- Inhibition of bilirubin uptake through OATP1B1 (OATP1B1 [3]): inhibit bilirubin uptake

Source: paper PMC4859410 (Pharmacogenetics and genomics, 2010)
